PubChem BioAssay (NCI)
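Results reflect a 48-hour exposure of cells in 96-well plates to compound at five concentrations. GI50 marks 50% less growth. TGI marks complete inhibition of growth.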

Columns and labels:
Test in all cases: NCI anticancer screen, dose series, 48 h
[1] = system: 786-0 renal
[2] = system: A498 renal
[3] = system: A549 NSCLC
[4] = system: ACHN renal
[5] = system: BT-549 breast
[6] = system: CAKI-1 renal
[7] = system: CCRF-CEM leukemia
[8] = system: COLO 205 colon
[9] = system: DU-145 prostate
[10] = system: EKVX NSCLC
[11] = system: HCC-2998 colon
[12] = system: HCT-116 colon
[13] = system: HCT-15 colon
[14] = system: HL-60(TB) leukemia
[15] = system: HOP-62 NSCLC
[16] = system: HOP-92 NSCLC
[17] = system: HS 578T breast
[18] = system: HT29 colon
[19] = system: IGROV1 ovarian
[20] = system: K-562 leukemia
[21] = system: KM12 colon
[22] = system: LOX IMVI melanoma
[23] = system: M14 melanoma
[24] = system: MALME-3M melanoma
[25] = system: MDA-MB-231 breast
[26] = system: MDA-MB-435
[27] = system: MOLT-4 leukemia
[28] = system: NCI-H226 lung
[29] = system: NCI-H23 lung
[30] = system: NCI-H460 lung
[31] = system: NCI-H522 lung
[32] = system: NCI/ADR-RES ovarian
[33] = system: OVCAR-3 ovarian
[34] = system: OVCAR-4 ovarian
[35] = system: OVCAR-5 ovarian
[36] = system: OVCAR-8 ovarian
[37] = system: PC-3 prostate
[38] = system: RPMI-8226 leukemia
[39] = system: RXF 393 renal
[40] = system: SF-268 CNS
[41] = system: SF-295 CNS
[42] = system: SF-539 CNS
[43] = system: SK-MEL-2 melanoma
[44] = system: SK-MEL-28 melanoma
[45] = system: SK-MEL-5 melanoma
[46] = system: SK-OV-3 ovarian
[47] = system: SN12C renal
[48] = system: SNB-19 CNS
[49] = system: SNB-75 CNS
[50] = system: SR leukemia
[51] = system: SW-620 colon
[52] = system: T-47D breast
[53] = system: TK-10 renal
[54] = system: U251 CNS
[55] = system: UACC-257 melanoma
[56] = system: UACC-62 melanoma
[57] = system: UO-31 renal
[58] = system: MCF7 breast

`CC[C@@]1(O)C(=O)OCc2c1cc1n(c2=O)Cc2c-1nc1cc(F)c(C)c3c1c2[C@@H](NC(=O)CO)CC3` was tested, and the GI50 [1] was < 0.01 µM, the TGI [1] was 0.439 µM and the GI50 [2] was < 0.011 µM. For the same compound, the TGI [2] was 0.0516 µM, the GI50 [3] was 0.0503 µM and the TGI [3] was 7.51 µM. For the same compound, the GI50 [4] was < 0.01 µM, the TGI [4] was 0.131 µM and the GI50 [5] was < 0.0118 µM. For the same compound, the TGI [5] was 0.73 µM, the GI50 [6] was < 0.01 µM and the TGI [6] was 0.117 µM. For the same compound, the GI50 [7] was < 0.01 µM, the TGI [7] was > 100 µM and the GI50 [8] was 0.127 µM. The TGI [8] was 4.16 µM, the GI50 [9] was < 0.01 µM and the TGI [9] was > 100 µM. The GI50 [10] was 0.311 µM, the TGI [10] was > 100 µM and the GI50 [11] was 0.163 µM. For the same compound, the TGI [11] was 3.51 µM, the GI50 [12] was < 0.01 µM and the TGI [12] was > 100 µM. The GI50 [13] was 0.247 µM, the TGI [13] was > 100 µM and the GI50 [14] was < 0.01 µM. For the same compound, the TGI [14] was 0.781 µM, the GI50 [15] was < 0.01 µM and the TGI [15] was 2.14 µM. For the same compound, the GI50 [16] was < 0.0125 µM, the TGI [16] was 0.355 µM and the GI50 [17] was 1.25 µM. For the same compound, the TGI [17] was > 100 µM, the GI50 [18] was 0.0512 µM and the GI50 [19] was 0.0449 µM. The TGI [19] was 1.92 µM, the GI50 [20] was 0.0193 µM and the TGI [20] was > 100 µM. For the same compound, the GI50 [21] was 0.149 µM, the TGI [21] was > 100 µM and the GI50 [22] was < 0.01 µM. The TGI [22] was 0.0314 µM, the GI50 [23] was < 0.01 µM and the TGI [23] was 0.0957 µM. For the same compound, the GI50 [24] was 0.0304 µM, the TGI [24] was 1.08 µM and the GI50 [25] was 0.511 µM. The TGI [25] was > 100 µM, the GI50 [26] was 0.0612 µM and the TGI [26] was 3.05 µM. For the same compound, the GI50 [27] was < 0.01 µM, the TGI [27] was > 100 µM and the GI50 [28] was < 0.0128 µM. The TGI [28] was 0.117 µM, the GI50 [29] was < 0.01 µM and the TGI [29] was 0.0729 µM. The GI50 [30] was < 0.01 µM, the TGI [30] was 1.27 µM and the GI50 [31] was < 0.01 µM. The TGI [31] was 0.328 µM, the GI50 [32] was 0.0564 µM and the TGI [32] was 3.98 µM. For the same compound, the GI50 [33] was 0.0603 µM, the TGI [33] was 1.65 µM and the GI50 [34] was 0.206 µM. For the same compound, the TGI [34] was > 100 µM, the GI50 [35] was 0.115 µM and the GI50 [36] was 0.0132 µM. For the same compound, the TGI [36] was > 100 µM, the GI50 [37] was 0.0985 µM and the TGI [37] was > 100 µM. The GI50 [38] was 0.0721 µM, the TGI [38] was 1.67 µM and the GI50 [39] was < 0.01 µM. The TGI [39] was 0.0731 µM, the GI50 [40] was < 0.01 µM and the TGI [40] was 1.95 µM. For the same compound, the GI50 [41] was < 0.01 µM, the TGI [41] was 0.338 µM and the GI50 [42] was < 0.01 µM. For the same compound, the TGI [42] was 0.0404 µM, the GI50 [43] was 0.318 µM and the TGI [43] was 2.63 µM. For the same compound, the GI50 [44] was 0.176 µM, the TGI [44] was 4.56 µM and the GI50 [45] was < 0.0109 µM. The TGI [45] was 0.119 µM, the GI50 [46] was 0.0173 µM and the TGI [46] was 4.96 µM. The GI50 [47] was < 0.01 µM, the GI50 [48] was < 0.01 µM and the TGI [48] was 2.53 µM. The GI50 [49] was < 0.01 µM, the TGI [49] was 0.133 µM and the GI50 [50] was < 0.01 µM. For the same compound, the TGI [50] was > 100 µM, the GI50 [51] was < 0.01 µM and the TGI [51] was > 44.2 µM. For the same compound, the GI50 [52] was < 0.01 µM, the GI50 [53] was 0.4 µM and the TGI [53] was 7.43 µM. For the same compound, the GI50 [54] was < 0.01 µM, the TGI [54] was 1.76 µM and the GI50 [55] was 0.047 µM. The TGI [55] was 1.02 µM, the GI50 [56] was < 0.01 µM and the TGI [56] was 0.117 µM. For the same compound, the GI50 [57] was 0.019 µM and the TGI [57] was 0.485 µM.

With `O=C(NN1C(=O)CSC1c1c(Cl)cccc1Cl)C(O)c1ccccc1` (stereo not given) the GI50 [1] was 69.3 µM, the TGI [1] was > 100 µM and the GI50 [2] was > 100 µM. For the same compound, the TGI [2] was > 100 µM, the GI50 [3] was 21.2 µM and the TGI [3] was 81.6 µM. The GI50 [4] was 28.4 µM, the TGI [4] was > 100 µM and the GI50 [5] was 80 µM. The TGI [5] was > 100 µM, the GI50 [6] was 23.9 µM and the TGI [6] was > 100 µM. For the same compound, the GI50 [7] was 43.7 µM, the TGI [7] was > 100 µM and the GI50 [8] was 34.1 µM. The TGI [8] was > 100 µM, the GI50 [9] was > 100 µM and the TGI [9] was > 100 µM. The GI50 [10] was 59.6 µM, the TGI [10] was > 100 µM and the GI50 [11] was 64.3 µM. For the same compound, the TGI [11] was > 100 µM, the GI50 [12] was 36.7 µM and the TGI [12] was > 100 µM. The GI50 [13] was 30.5 µM, the TGI [13] was > 100 µM and the GI50 [15] was > 100 µM. The TGI [15] was > 100 µM, the GI50 [16] was 20.9 µM and the TGI [16] was 98.9 µM. The GI50 [17] was > 100 µM, the TGI [17] was > 100 µM and the GI50 [18] was 33.1 µM. The TGI [18] was > 100 µM, the GI50 [19] was 40.8 µM and the TGI [19] was > 100 µM. For the same compound, the GI50 [20] was 29.7 µM, the TGI [20] was 76 µM and the GI50 [21] was 34.2 µM. The TGI [21] was > 100 µM, the GI50 [22] was 64.7 µM and the TGI [22] was > 100 µM. For the same compound, the GI50 [23] was 35.7 µM, the TGI [23] was > 100 µM and the GI50 [24] was 31.7 µM. The TGI [24] was > 100 µM, the GI50 [58] was 44.2 µM and the TGI [58] was > 100 µM. The GI50 [25] was 19.2 µM, the TGI [25] was > 100 µM and the GI50 [26] was 25 µM. The TGI [26] was > 100 µM, the GI50 [27] was 25 µM and the TGI [27] was 80.7 µM. The GI50 [28] was 38.1 µM, the TGI [28] was > 100 µM and the GI50 [29] was 19.9 µM. The TGI [29] was > 100 µM, the GI50 [30] was 40.4 µM and the TGI [30] was > 100 µM. The GI50 [31] was 25.7 µM, the TGI [31] was > 100 µM and the GI50 [33] was 21.3 µM. For the same compound, the TGI [33] was 76.6 µM, the GI50 [34] was 29.1 µM and the TGI [34] was > 100 µM. For the same compound, the GI50 [35] was > 100 µM, the TGI [35] was > 100 µM and the GI50 [36] was 52 µM. For the same compound, the TGI [36] was > 100 µM, the GI50 [37] was 29.6 µM and the TGI [37] was > 100 µM. For the same compound, the GI50 [38] was 43.8 µM, the TGI [38] was > 100 µM and the GI50 [39] was 29.3 µM. For the same compound, the TGI [39] was > 100 µM, the GI50 [40] was 60 µM and the TGI [40] was > 100 µM. For the same compound, the GI50 [41] was 37.3 µM, the TGI [41] was > 100 µM and the GI50 [42] was > 100 µM. The TGI [42] was > 100 µM, the GI50 [43] was 50.5 µM and the TGI [43] was > 100 µM. For the same compound, the GI50 [44] was 63.7 µM, the TGI [44] was > 100 µM and the GI50 [45] was 32.8 µM. The TGI [45] was > 100 µM, the GI50 [46] was > 100 µM and the TGI [46] was > 100 µM. The GI50 [47] was 34.9 µM, the TGI [47] was > 100 µM and the GI50 [48] was 71.6 µM. The TGI [48] was > 100 µM, the GI50 [49] was 32.4 µM and the TGI [49] was > 100 µM. The GI50 [51] was 71.8 µM, the TGI [51] was > 100 µM and the GI50 [52] was 40.4 µM. For the same compound, the TGI [52] was > 100 µM, the GI50 [53] was 78.9 µM and the TGI [53] was > 100 µM. For the same compound, the GI50 [54] was 37.3 µM, the TGI [54] was > 100 µM and the GI50 [55] was 31 µM. It also gave a TGI [55] of 94.5 µM, a GI50 [56] of 7.15 µM and a TGI [56] of 43.5 µM. The GI50 [57] was 29.3 µM and the TGI [57] was > 100 µM.
